Molecules are shown by their SMILES.

Chain of Full-length inactive AKT1 (P31749 whole entry): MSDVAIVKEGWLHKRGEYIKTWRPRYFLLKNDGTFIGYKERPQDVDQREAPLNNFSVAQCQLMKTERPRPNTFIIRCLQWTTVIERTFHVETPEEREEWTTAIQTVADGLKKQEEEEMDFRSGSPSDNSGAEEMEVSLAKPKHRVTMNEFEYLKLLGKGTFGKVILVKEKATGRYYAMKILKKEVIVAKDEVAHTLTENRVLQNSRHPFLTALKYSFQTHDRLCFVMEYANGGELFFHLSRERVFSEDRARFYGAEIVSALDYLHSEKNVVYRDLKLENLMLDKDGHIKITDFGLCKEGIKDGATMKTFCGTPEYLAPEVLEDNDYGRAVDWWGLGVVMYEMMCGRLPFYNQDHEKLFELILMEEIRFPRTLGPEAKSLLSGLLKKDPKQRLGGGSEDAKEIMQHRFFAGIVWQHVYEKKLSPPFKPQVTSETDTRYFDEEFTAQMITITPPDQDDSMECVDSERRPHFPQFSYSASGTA

One assay concerns the target Full-length inactive AKT1 (Homo sapiens, UniProt P31749). The assay can be described thus: Inactive Akt Alpha Screen Assay. It is filed as biochemical. The settings on record: AlphaScreen assay (values not marked with *); read-out: Akt1 IC50, (AlphaScreen) (μM) (or if marked with “*” HTRF assay). In outline: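 AlphaScreen read-out (excitation 640 nm, emission 570 nm) after 90 min incubation at room temperature in the dark. Signal comes from crosstide phosphorylation by AKT1, which was activated by added PDK1, MAPKAPK2, ATP and lipid vesicles, captured via phospho-AKT substrate antibody and streptavidin beads.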
On the technique in general: In Alpha technology, singlet oxygen from a donor bead excites a nearby acceptor bead.
As for `Nc1ncccc1-c1nc2ccc(-c3cc(O)cc(F)c3)nc2n1-c1ccc(C2(N)CCC2)cc1` [Example 435, 3-{3-[4-(1-aminocyclobutyl)phenyl]-2-(2-aminopyridin-3-yl)-3H-imidazo[4,5-b]pyridin-5-yl}-5-fluorophenol], the IC50 was found to be 0.01 µM.

Take `Nc1ncccc1-c1nc2ccc(-c3cccc4c3CC(=O)N4)nc2n1-c1ccc(C2(N)CCC2)cc1` [Example 454, 4-{3-[4-(1-aminocyclobutyl)phenyl]-2-(2-aminopyridin-3-yl)-3H-imidazo[4,5-b]pyridin-5-yl}-1,3-dihydro-2H-indol-2-one]: the IC50 was found to be 0.0094 µM.

For the compound `Nc1ncccc1-c1nc2ccc(-c3cccc(N4CCCC4)c3)nc2n1-c1ccc(C2(N)CCC2)cc1` [Example 449, 3-{3-[4-(1-aminocyclobutyl)phenyl]-5-(3-pyrrolidin-1-ylphenyl)-3H-imidazo[4,5-b]pyridin-2-yl}pyridin-2-amine], the IC50 turned out to be 0.0023 µM.

In the case of `Nc1ncccc1-c1nc2ccc(-c3cccc(N4CCCOCC4)c3)nc2n1-c1ccc(C2(N)CCC2)cc1` [Example 459, 3-{3-[4-(1-aminocyclobutyl)phenyl]-5-[3-(1,4-oxazepan-4-yl)phenyl]-3H-imidazo[4,5-b]pyridin-2-yl}pyridin-2-amine], the IC50 amounted to 0.0077 µM.

In the case of `Nc1ncccc1-c1nc2ccc(-c3cccc(-n4cccn4)c3)nc2n1-c1ccc(C2(N)CCC2)cc1` [Example 456, 3-{3-[4-(1-aminocyclobutyl)phenyl]-5-[3-(1H-pyrazol-1-yl)phenyl]-3H-imidazo[4,5-b]pyridin-2-yl}pyridin-2-amine], the IC50 was 0.0031 µM.

Still in this assay, the particulars now being: values not marked with "*": AlphaScreen assay; read-out: Akt1 IC50, (AlphaScreen).
For the compound `Nc1ncccc1-c1nc2cc(-c3ccc4cc[nH]c4c3)cnc2n1-c1ccc(CNC(=O)c2ccccc2)cc1` [Example 139, N-{4-[2-(2-aminopyridin-3-yl)-6-(1H-indol-6-yl)-3H-imidazo[4,5-b]pyridin-3-yl]benzyl}benzamide], the IC50 worked out at 0.36 µM.

Consider `Nc1ncccc1-c1nc2cccnc2n1-c1ccc(CNC(=O)c2ccc(OC(F)(F)F)cc2)cc1` [Example 47], for which the IC50 came to 0.378 µM.

With `Nc1ncccc1-c1nc2cc(Br)cnc2n1-c1ccc(CNS(=O)(=O)c2cccs2)cc1` [Example 155, N-{4-[2-(2-aminopyridin-3-yl)-6-bromo-3H-imidazo[4,5-b]pyridin-3-yl]benzyl}thiophene-2-sulfonamide], the IC50 was determined as 0.14 µM.

For `Nc1ncccc1-c1nc2cc(-c3ccncc3)cnc2n1-c1ccc(CNC(=O)c2ccccc2)cc1` [Example 145, N-{4-[2-(2-aminopyridin-3-yl)-6-pyridin-4-yl-3H-imidazo[4,5-b]pyridin-3-yl]benzyl}benzamide], the IC50 was determined as 0.16 µM.

In the case of `Nc1ncccc1-c1nc2cccnc2n1-c1ccc(CNC(=O)C2Cc3ccccc3C2)cc1` [Example 75], the concentration for half-maximal inhibition (IC50) was 0.179 µM.

Turning to `Nc1ncccc1-c1nc2cccnc2n1-c1ccc(CNS(=O)(=O)c2ccsc2)cc1` [Example 100], the IC50 turned out to be 0.158 µM.

Take `Nc1ncccc1-c1nc2cccnc2n1-c1ccc(CNC(=O)c2ccc(F)cc2)cc1` [Example 81]: the concentration for half-maximal inhibition (IC50) was 1.37 µM.

Staying with this assay, now noted: values not marked with "*"; read-out: Akt1 IC50, (AlphaScreen).
Turning to `COc1ccc(NC(=O)c2ccc(-n3c(-c4cccnc4N)nc4cccnc43)cc2)cc1F` [Example 185, 4-[2-(2-aminopyridin-3-yl)-3H-imidazo[4,5-b]pyridin-3-yl]-N-(3-fluoro-4-methoxyphenyl)benzamide], the IC50 is 2.5 µM.

As for `CC(C)(C)OC(=O)NCc1ccc(-n2c(-c3cccnc3N)nc3ccc(-c4cn[nH]c4)nc32)cc1` [Example 354, tert-butyl 4-(2-(2-aminopyridin-3-yl)-5-(1H-pyrazol-4-yl)-3H-imidazo[4,5-b]pyridin-3-yl)benzylcarbamate], the IC50 stood at 0.15 µM.

Turning to `Cc1cnc2c(c1)nc(-c1cccnc1N)n2-c1ccc(CNC(=O)c2ccccc2Cl)cc1` [Example 218, N-(4-(2-(2-aminopyridin-3-yl)-6-methyl-3H-imidazo[4,5-b]pyridin-3-yl)benzyl)-2-chlorobenzamide], the 50% inhibitory concentration (IC50) came out at 0.063 µM.

For the compound `Cc1ccc2cc(C(=O)NCc3ccc(-n4c(-c5cccnc5N)nc5ccc(C)nc54)cc3)ccc2n1` [Example 263, N-(4-(2-(2-aminopyridin-3-yl)-5-methyl-3H-imidazo[4,5-b]pyridin-3-yl)benzyl)-2-methylquinoline-6-carboxamide], the IC50 worked out at 0.11 µM.

For the compound `Cc1ccc2nc(-c3cccnc3N)n(-c3ccc(CC(=O)Nc4ccccc4)cc3)c2n1` [Example 301, 2-(4-(2-(2-aminopyridin-3-yl)-5-methyl-3H-imidazo[4,5-b]pyridin-3-yl)phenyl)-N-phenylacetamide], the IC50 was 0.066 µM.

`Cc1cnc2c(c1)nc(-c1cccnc1N)n2-c1ccc(CNC(=O)c2ccc(C(C)C)cc2)cc1` [Example 230, N-(4-(2-(2-aminopyridin-3-yl)-6-methyl-3H-imidazo[4,5-b]pyridin-3-yl)benzyl)-4-isopropylbenzamide]: the IC50 came to 0.19 µM.

Regarding `CC(=O)Nc1ccc(-c2cnc3c(c2)nc(-c2cccnc2N)n3-c2cccc(CNC(=O)c3cccc(F)c3)c2)cc1` [Example 402, N-(3-(6-(4-acetamidophenyl)-2-(2-aminopyridin-3-yl)-3H-imidazo[4,5-b]pyridin-3-yl)benzyl)-3-fluorobenzamide], the IC50 came to 2.83 µM.

Take `Cc1cnc2c(c1)nc(-c1cccnc1N)n2-c1ccc(CNC(=O)c2cccc(Cl)c2)cc1` [Example 282, N-(4-(2-(2-aminopyridin-3-yl)-6-methyl-3H-imidazo[4,5-b]pyridin-3-yl)benzyl)-3-chlorobenzamide]: the IC50 is 0.14 µM.

Turning to `CS(=O)(=O)NC1(c2ccc(-n3c(-c4cccnc4N)nc4ccc(-c5ccccc5)nc43)cc2)CCC1` [Example 367, N-(1-(4-(2-(2-aminopyridin-3-yl)-5-phenyl-3H-imidazo[4,5-b]pyridin-3-yl)phenyl)cyclobutyl)methanesulfonamide], the IC50 was determined as 0.18 µM.

With `Nc1ncccc1-c1nc2ccc(-c3ccccn3)nc2n1-c1ccc(C2(N)CCC2)cc1` [Example 393, 3-(3-(4-(1-aminocyclobutyl)phenyl)-5-(pyridin-2-yl)-3H-imidazo[4,5-b]pyridin-2-yl)pyridin-2-amine], the IC50 was found to be 0.0037 µM.

On to `Cc1cc2nc(-c3cccnc3N)n(-c3ccc(CNC(=O)c4cccc(F)c4)cc3)c2nc1C` [Example 321, N-(4-(2-(2-aminopyridin-3-yl)-5,6-dimethyl-3H-imidazo[4,5-b]pyridin-3-yl)benzyl)-3-fluorobenzamide], for which the IC50 is 0.076 µM.

As to `C[S+]([O-])c1ccc(-c2ccc3nc(-c4cccnc4N)n(-c4ccc(CNC(=O)c5cccc(F)c5)cc4)c3n2)cc1` (stereo not shown) [Example 315, N-(4-(2-(2-aminopyridin-3-yl)-5-(4-(methylsulfinyl)phenyl)-3H-imidazo[4,5-b]pyridin-3-yl)benzyl)-3-fluorobenzamide], the IC50 was determined as 0.036 µM.

With `Cc1ccc(S(=O)(=O)Nc2cccc(-c3ccc4nc(-c5cccnc5N)n(-c5ccc(C6(N)CCC6)cc5)c4n3)c2)cc1` [Example 407, N-(3-{3-[4-(1-aminocyclobutyl)phenyl]-2-(2-aminopyridin-3-yl)-3H-imidazo[4,5-b]pyridin-5-yl}phenyl)-4-methylbenzenesulfonamide], the IC50 was 0.0028 µM.

As to `COc1cccc(-c2ccc3nc(-c4cccnc4N)n(-c4ccc(C5(N)CCC5)cc4)c3n2)c1` [Example 396, 3-(3-(4-(1-aminocyclobutyl)phenyl)-5-(3-methoxyphenyl)-3H-imidazo[4,5-b]pyridin-2-yl)pyridin-2-amine], the IC50 is 0.0032 µM.

Turning to `Nc1ncccc1-c1nc2ccc(-c3cccc(CO)c3)nc2n1-c1ccc(C2(N)CCC2)cc1` [Example 374, (3-(3-(4-(1-aminocyclobutyl)phenyl)-2-(2-aminopyridin-3-yl)-3H-imidazo[4,5-b]pyridin-5-yl)phenyl)methanol], the IC50 was 0.0013 µM.

As for `Cc1cnc2c(c1)nc(-c1cccnc1N)n2-c1ccc(CNC(=O)c2ccc(N(C)C)cc2)cc1` [Example 222, N-(4-(2-(2-aminopyridin-3-yl)-6-methyl-3H-imidazo[4,5-b]pyridin-3-yl)benzyl)-4-(dimethylamino)benzamide], the IC50 was determined as 0.043 µM.

Consider `Nc1ncccc1-c1nc2ccc(-c3cncnc3)nc2n1-c1ccc(CNC(=O)c2cccc(F)c2)cc1` [Example 337, N-(4-(2-(2-aminopyridin-3-yl)-5-(pyrimidin-5-yl)-3H-imidazo[4,5-b]pyridin-3-yl)benzyl)-3-fluorobenzamide], for which the IC50 was determined as 0.082 µM.

On to `Cc1ccnc(NC(=O)c2ccc(-n3c(-c4cccnc4N)nc4cccnc43)cc2)c1` [Example 179, 4-[2-(2-aminopyridin-3-yl)-3H-imidazo[4,5-b]pyridin-3-yl]-N-(4-methylpyridin-2-yl)benzamide], for which the half-inhibitory concentration (IC50) is 0.53 µM.

In the case of `CC(=O)Nc1cccc(NC(=O)Cc2ccc(-n3c(-c4cccnc4N)nc4cc(C)cnc43)cc2)c1` [Example 343, N-(3-acetamidophenyl)-2-(4-(2-(2-aminopyridin-3-yl)-6-methyl-3H-imidazo[4,5-b]pyridin-3-yl)phenyl)acetamide], the IC50 was found to be 0.11 µM.

For `COc1cc(-c2ccc3nc(-c4cccnc4N)n(-c4ccc(C5(N)CCC5)cc4)c3n2)ccc1O` [Example 419, 4-{3-[4-(1-aminocyclobutyl)phenyl]-2-(2-aminopyridin-3-yl)-3H-imidazo[4,5-b]pyridin-5-yl}-2-methoxyphenol], the IC50 amounted to 0.0027 µM.

With `Cc1ccc2cc(NC(=O)c3ccc(-n4c(-c5cccnc5N)nc5cccnc54)cc3)ccc2n1` [Example 180, 4-[2-(2-aminopyridin-3-yl)-3H-imidazo[4,5-b]pyridin-3-yl]-N-(2-methylquinolin-6-yl)benzamide], the IC50 turned out to be 0.59 µM.

For the compound `Cc1cnc2c(c1)nc(-c1cccnc1N)n2-c1ccc(CNC(=O)c2cncnc2)cc1` [Example 271, N-(4-(2-(2-aminopyridin-3-yl)-6-methyl-3H-imidazo[4,5-b]pyridin-3-yl)benzyl)pyrimidine-5-carboxamide], the IC50 stood at 0.64 µM.

Usually IC50 stands for the concentration at which inhibition is half-maximal.

Source of the values: patent US8501770B2 (ArQule, Inc., priority 2009, dated 2013).
